Test results reported in PubChem BioAssay AID1963963 (Molecular Pharmacology Branch, DTP, NCI, 2024).
“And” between values parts separate entries of the source, which are not always exact repeats. Equal values may be shown once. Values belong to the molecule of their own block, whether it stands above or below them.

Tested on: 958667-338-R-J2-PDC tumor spheroids viability
Experiment: Anticancer human tumor 958667-338-R-J2-PDC patient-derived colon adenocarcinoma cell line growth inhibition [PI3K]
Conditions: spheroids with HUVEC and MSC; for viability, T/C: stronger effect = lower value
Method in brief: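 Spheroid viability read-out. Co-cultures contained the tumor line plus HUVEC and human MSCs. Each agent was paired with a PI3K inhibitor (inavolisib, alpelisib, duvelisib, copanlisib) across half-log dilutions starting at clinical Cmax, or at 10 microM when Cmax was unknown.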

[1] = curve of first compound, second compound 0.0316 µM
[2] = curve of first compound, second compound 0.1 µM
[3] = curve of first compound, second compound 0.316 µM
[4] = curve of first compound, second compound 1 µM
[5] = curve of first compound, second compound 3.16 µM
[6] = curve of first compound, second compound 10 µM
[7] = second compound 0.0316 µM, first compound 0.0316 µM
[8] = second compound 0.0316 µM, first compound 0.1 µM
[9] = second compound 0.0316 µM, first compound 0.316 µM
[10] = second compound 0.0316 µM, first compound 1 µM
[11] = second compound 0.0316 µM, first compound 3.16 µM
[12] = second compound 0.0316 µM, first compound 10 µM
[13] = second compound 0.1 µM, first compound 0.0316 µM
[14] = second compound 0.1 µM, first compound 0.1 µM
[15] = second compound 0.1 µM, first compound 0.316 µM
[16] = second compound 0.1 µM, first compound 1 µM
[17] = second compound 0.1 µM, first compound 3.16 µM
[18] = second compound 0.1 µM, first compound 10 µM
[19] = second compound 0.316 µM, first compound 0.0316 µM
[20] = second compound 0.316 µM, first compound 0.1 µM
[21] = second compound 0.316 µM, first compound 0.316 µM
[22] = second compound 0.316 µM, first compound 1 µM
[23] = second compound 0.316 µM, first compound 3.16 µM
[24] = second compound 0.316 µM, first compound 10 µM
[25] = second compound 1 µM, first compound 0.0316 µM
[26] = second compound 1 µM, first compound 0.1 µM
[27] = second compound 1 µM, first compound 0.316 µM
[28] = second compound 1 µM, first compound 1 µM
[29] = second compound 1 µM, first compound 3.16 µM
[30] = second compound 1 µM, first compound 10 µM
[31] = second compound 3.16 µM, first compound 0.0316 µM
[32] = second compound 3.16 µM, first compound 0.1 µM
[33] = second compound 3.16 µM, first compound 0.316 µM
[34] = second compound 3.16 µM, first compound 1 µM
[35] = second compound 3.16 µM, first compound 3.16 µM
[36] = second compound 3.16 µM, first compound 10 µM
[37] = second compound 10 µM, first compound 0.0316 µM
[38] = second compound 10 µM, first compound 0.1 µM
[39] = second compound 10 µM, first compound 0.316 µM
[40] = second compound 10 µM, first compound 1 µM
[41] = second compound 10 µM, first compound 3.16 µM
[42] = second compound 10 µM, first compound 10 µM
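Further: spheroids exposed to compounds for seven days before readout.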

Compound: CCCS(=O)(=O)Nc1ccc(F)c(C(=O)c2c[nH]c3ncc(-c4ccc(Cl)cc4)cc23)c1F + Cc1nc(NC(=O)N2CCCC2C(N)=O)sc1-c1ccnc(C(C)(C)C(F)(F)F)c1
IC50 [1]: 5.75 µM
IC50 [2]: 5.49 µM
IC50 [3]: 5.17 µM
IC50 [4]: 6.58 µM
IC50 [5]: 4.64 µM
IC50 [6]: 4.35 µM
viability, T/C [7]: 106%
viability, T/C [8]: 87.6%
viability, T/C [9]: 89.8%
viability, T/C [10]: 86.1%
viability, T/C [11]: 111%
viability, T/C [12]: 7.09%
viability, T/C [13]: 96.3%
viability, T/C [14]: 91.9%
viability, T/C [15]: 82.2%
viability, T/C [16]: 77.2%
viability, T/C [17]: 90.2%
viability, T/C [18]: 9.01%
viability, T/C [19]: 90.7%
viability, T/C [20]: 78.6%
viability, T/C [21]: 70.8%
viability, T/C [22]: 77.7%
viability, T/C [23]: 85.5%
viability, T/C [24]: 8.6%
viability, T/C [25]: 79.5%
viability, T/C [26]: 84.5%
viability, T/C [27]: 86%
viability, T/C [28]: 70.8%
viability, T/C [29]: 80.5%
viability, T/C [30]: 32.7%
viability, T/C [31]: 57%
viability, T/C [32]: 66.4%
viability, T/C [33]: 75.9%
viability, T/C [34]: 49.3%
viability, T/C [35]: 74.3%
viability, T/C [36]: 20.7%
viability, T/C [37]: 58.1%
viability, T/C [38]: 66.9%
viability, T/C [39]: 60.8%
viability, T/C [40]: 67.9%
viability, T/C [41]: 74.1%
viability, T/C [42]: 9.34%

Compound: CC1(C)CCC(CN2CCN(c3ccc(C(=O)NS(=O)(=O)c4ccc(NCC5CCOCC5)c([N+](=O)[O-])c4)c(Oc4cnc5[nH]ccc5c4)c3)CC2)=C(c2ccc(Cl)cc2)C1
viability, T/C (compound 0.316 µM): 106% [middle of 4 runs]
viability, T/C (compound 1 µM): 109% (2×) and 87% and 112%
viability, T/C (compound 3.16 µM): 98.7% [middle of 4 runs]
IC50 (curve of compound): > 10 µM and 6.88 µM and 6.97 µM

The next lines start with results.

IC50 (curve of compound): > 10 µM
Compound: CC(Cn1ccc(-c2ccc(C#N)c(Cl)c2)n1)NC(=O)c1cc(C(C)O)[nH]n1 (configuration not stated)
viability, T/C (compound 0.0316 µM): 105% [middle of 4 runs]
viability, T/C (compound 0.1 µM): 92.6% [middle of 4 runs]
viability, T/C (compound 0.316 µM): 111% [middle of 4 runs]
viability, T/C (compound 1 µM): 104% [middle of 4 runs]
viability, T/C (compound 3.16 µM): 107% [middle of 4 runs]
viability, T/C (compound 10 µM): 89.4% [middle of 4 runs]

IC50 [1]: 7.01 µM
IC50 [2]: 6.73 µM
IC50 [3]: 6.72 µM
IC50 [4]: 6.91 µM
IC50 [5]: 5.32 µM
IC50 [6]: 4.21 µM
Compound: CC1(C)CCC(CN2CCN(c3ccc(C(=O)NS(=O)(=O)c4ccc(NCC5CCOCC5)c([N+](=O)[O-])c4)c(Oc4cnc5[nH]ccc5c4)c3)CC2)=C(c2ccc(Cl)cc2)C1 + Cc1nc(NC(=O)N2CCCC2C(N)=O)sc1-c1ccnc(C(C)(C)C(F)(F)F)c1
viability, T/C [7]: 88.8%
viability, T/C [8]: 95%
viability, T/C [9]: 83.5%
viability, T/C [10]: 123%
viability, T/C [11]: 97.1%
viability, T/C [12]: 29.1%
viability, T/C [13]: 90.4%
viability, T/C [14]: 93.2%
viability, T/C [15]: 99.4%
viability, T/C [16]: 99.8%
viability, T/C [17]: 107%
viability, T/C [18]: 24.8%
viability, T/C [19]: 93.3%
viability, T/C [20]: 85.8%
viability, T/C [21]: 104%
viability, T/C [22]: 99%
viability, T/C [23]: 98.5%
viability, T/C [24]: 25.7%
viability, T/C [25]: 88.9%
viability, T/C [26]: 72.6%
viability, T/C [27]: 93.3%
viability, T/C [28]: 87.6%
viability, T/C [29]: 91.1%
viability, T/C [30]: 32.5%
viability, T/C [31]: 89.3%
viability, T/C [32]: 76.8%
viability, T/C [33]: 67%
viability, T/C [34]: 76.5%
viability, T/C [35]: 66.6%
viability, T/C [36]: 31.4%
viability, T/C [37]: 65.7%
viability, T/C [38]: 64.6%
viability, T/C [39]: 55.8%
viability, T/C [40]: 61.5%
viability, T/C [41]: 65.7%
viability, T/C [42]: 12%

IC50 [1]: > 0.1 µM
IC50 [2]: > 0.1 µM
IC50 [3]: > 0.1 µM
IC50 [4]: > 0.1 µM
IC50 [5]: > 0.1 µM
IC50 [6]: > 0.1 µM
Compound: CC(=O)c1c(C)c2cnc(Nc3ccc(N4CCNCC4)cn3)nc2n(C2CCCC2)c1=O + CC(Nc1ncnc2nc[nH]c12)c1cc2cccc(Cl)c2c(=O)n1-c1ccccc1
viability, T/C (second compound 0.0316 µM, first compound 0.000316 µM): 106%
viability, T/C (second compound 0.0316 µM, first compound 0.001 µM): 101%
viability, T/C (second compound 0.0316 µM, first compound 0.00316 µM): 95.3%
viability, T/C (second compound 0.0316 µM, first compound 0.01 µM): 117%
viability, T/C [7]: 90.2%
viability, T/C [8]: 91.6%
viability, T/C (second compound 0.1 µM, first compound 0.000316 µM): 117%
viability, T/C (second compound 0.1 µM, first compound 0.001 µM): 103%
viability, T/C (second compound 0.1 µM, first compound 0.00316 µM): 89.2%
viability, T/C (second compound 0.1 µM, first compound 0.01 µM): 96.8%
viability, T/C [13]: 105%
viability, T/C [14]: 74.4%
viability, T/C (second compound 0.316 µM, first compound 0.000316 µM): 98.6%
viability, T/C (second compound 0.316 µM, first compound 0.001 µM): 89.5%
viability, T/C (second compound 0.316 µM, first compound 0.00316 µM): 91.3%
viability, T/C (second compound 0.316 µM, first compound 0.01 µM): 103%
viability, T/C [19]: 118%
viability, T/C [20]: 83.1%
viability, T/C (second compound 1 µM, first compound 0.000316 µM): 99.3%
viability, T/C (second compound 1 µM, first compound 0.001 µM): 126%
viability, T/C (second compound 1 µM, first compound 0.00316 µM): 95.4%
viability, T/C (second compound 1 µM, first compound 0.01 µM): 106%
viability, T/C [25]: 104%
viability, T/C [26]: 87.9%
viability, T/C (second compound 3.16 µM, first compound 0.000316 µM): 108%
viability, T/C (second compound 3.16 µM, first compound 0.001 µM): 71.5%
viability, T/C (second compound 3.16 µM, first compound 0.00316 µM): 118%
viability, T/C (second compound 3.16 µM, first compound 0.01 µM): 97.5%
viability, T/C [31]: 97%
viability, T/C [32]: 95.7%
viability, T/C (second compound 10 µM, first compound 0.000316 µM): 103%
viability, T/C (second compound 10 µM, first compound 0.001 µM): 79.5%
viability, T/C (second compound 10 µM, first compound 0.00316 µM): 95%
viability, T/C (second compound 10 µM, first compound 0.01 µM): 101%
viability, T/C [37]: 90.4%
viability, T/C [38]: 67.6%
